Test results reported in patent US10610522B2, “Methods for retreating irritable bowel syndrome (IBS)” (Salix Pharmaceuticals, Inc., priority 2014, dated 2020).
Several values for one entry are separate records, joined by “and”; a condition that tells them apart may be missing. Equal entries are not always repeated.

How the values were obtained:
non-constipation IBS = test: Study 2 (TARGET 2): rifaximin 550 mg TID 14 days vs placebo in non-C IBS, 10-week follow-up; assay type: in vivo, human
Method: The primary efficacy endpoint of the study was the proportion of subjects who achieved adequate relief of IBS symptoms for at least 2 weeks during the first 4 weeks of the 10-week follow-up phase.
Two measures of efficacy were assessed.
Subjects were questioned on the relief of overall IBS symptoms and bloating. […] The analyses defined success as a “yes” response to questions regarding adequate relief. […]
All subpopulations in the study responded to therapy. Baseline severity was determined during screening for Abdominal Pain/Discomfort and Bloating, and the number, type (normal, hard, loose) and urgency of bowel movements. Duration of effect was assessed in a ten week follow-up period. […]
In TARGET 1 and 2, the primary endpoint was the proportion of patients who achieved adequate relief of IBS symptoms for at least 2 of 4 weeks during the month following 14 days of treatment. Adequate relief was defined as a response of “yes” to the following weekly Subject Global Assessment (SGA) question: “In regards to your IBS symptoms, compared to the way you felt before you started study medication, have you, in the past 7 days, had adequate relief of your IBS symptoms? [Yes/No]”
The key secondary endpoint was the proportion of patients who achieved adequate relief of IBS-related bloating for at least 2 of 4 weeks during the month following 2 weeks of treatment. Adequate relief of IBS-related bloating was defined as a response of “yes” to the following weekly (every 7 days) SGA question: “In regards to your IBS symptom of bloating, compared to the way you felt before you started study medication, have you, in the past 7 days, had adequate relief of your IBS symptom of bloating? […]

cytochrome P450 2C19 = cytochrome P450 2C19 (Homo sapiens, UniProt P33261); test: In vitro cytochrome P450 inhibition; assay type: biochemical; conditions: 2 to 200 ng/mL
Sequence of cytochrome P450 2C19 (P33261 whole entry): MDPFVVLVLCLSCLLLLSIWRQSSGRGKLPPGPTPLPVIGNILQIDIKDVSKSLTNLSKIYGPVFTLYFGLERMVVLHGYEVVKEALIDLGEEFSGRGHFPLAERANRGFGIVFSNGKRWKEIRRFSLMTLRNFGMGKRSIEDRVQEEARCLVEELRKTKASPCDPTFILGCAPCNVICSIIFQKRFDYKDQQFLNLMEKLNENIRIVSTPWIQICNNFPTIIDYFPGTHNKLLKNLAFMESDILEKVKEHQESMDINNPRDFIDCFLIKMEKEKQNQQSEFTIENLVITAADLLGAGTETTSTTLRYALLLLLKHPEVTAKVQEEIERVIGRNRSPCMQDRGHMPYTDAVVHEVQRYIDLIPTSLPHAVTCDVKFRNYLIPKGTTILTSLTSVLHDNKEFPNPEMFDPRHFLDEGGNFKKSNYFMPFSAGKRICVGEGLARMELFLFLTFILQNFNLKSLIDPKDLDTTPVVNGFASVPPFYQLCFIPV

IBS-D = test: Adverse reactions in three phase 3 placebo-controlled IBS-D studies, rifaximin 550 mg TID; assay type: in vivo, human
Text: In two studies, 624 patients received only one 14-day treatment.
(These include adverse reactions that may be attributable to the underlying disease.)
The following includes adverse reactions regardless of causal relationship to drug exposure. Gastrointestinal Disorders: Abdominal distension, abdominal tenderness, constipation, diarrhea, dyspepsia, flatulence, vomiting

[1] = Race: White (N = 280), 550 mg TID, Weeks 3-6
[2] = Study 2, at least 2 weeks during PEP
[3] = TARGET 2, month following two weeks of treatment, 550 mg TID, N = 315
[4] = 1650 mg/day, N = 952, three phase 3 placebo-controlled studies

CO[C@H]1/C=C/O[C@@]2(C)Oc3c(C)c(O)c4c(O)c(c5c(nc6cc(C)ccn65)c4c3C2=O)NC(=O)/C(C)=C\C=C\[C@H](C)[C@H](O)[C@@H](C)[C@@H](O)[C@@H](C)[C@H](OC(C)=O)[C@@H]1C [Rifaximin, (2S,16Z,18E,20S,21S,22R,23R,24R,25S,26S,27S,28E)-5,6,21,23,25 Pentahydroxy-27-methoxy-2,4,11,16,20,22,24,26-octamethyl-2,7-(epoxypentadeca-(1,11,13)trienimino) benzofuro (4,5-e) pyrido(1,2-a) benzimidazole-1,15(2H)-dione,25-acetate]
Adequate relief of IBS symptoms (weekly SGA), Success (non-constipation IBS; Race: Non-White (N = 31), 550 mg TID, Weeks 3-6): 15 (48.4%) N(%) | Adequate relief of IBS symptom of bloating (weekly SGA), Failure (non-constipation IBS; [1]): 170 (60.7%) N (%) | Adequate relief of IBS symptom of bloating (weekly SGA), Success (non-constipation IBS; [1]): 110 (39.3%) N (%) | Adequate relief of IBS symptoms (weekly SGA), Failure (non-constipation IBS; [1]): 171 (61.1%) N (%) | Adequate relief of IBS symptoms (weekly SGA), Success (non-constipation IBS; [1]): 109 (38.9%) N (%) | IBS symptom of bloating: adequate relief at least 2 out of 4 weeks during weeks 3 through 6 (weekly question) (non-constipation IBS; Study 2 / TARGET 2): 41% | Global IBS symptoms: adequate relief at least 2 out of 4 weeks during weeks 3 through 6 (weekly question) (non-constipation IBS; Study 2 / TARGET 2, 550 mg TID 14 d): 41% and 32% vs 41% | Responders: abdominal pain reduction of 1 point in weekly mean (non-constipation IBS; [2]): 52% | Responders: abdominal pain reduction of 2 point in median (non-constipation IBS; [2]): 41% | Responders: abdominal pain reduction of 3 point in mean (non-constipation IBS; [2]): 6% vs 7% | Responders: abdominal pain reduction of 3 point in median (non-constipation IBS; [2]): 21% | Responders: daily abdominal pain < 2 for at least 50% of days in a week (non-constipation IBS; [2]): 39% | Responders: overall reduction of mean weekly abdominal pain by >= 25% (non-constipation IBS; [2]): 58% | Responders: overall reduction of mean weekly abdominal pain by >= 50% (non-constipation IBS; [2]): 35% | Responders: overall reduction of mean weekly abdominal pain by >= 75% (non-constipation IBS; [2]): 14% | Responders: overall reduction of median weekly abdominal pain by >= 25% (non-constipation IBS; [2]): 62% | Responders: overall reduction of median weekly abdominal pain by >= 50% (non-constipation IBS; [2]): 44% | Abdominal Pain Responders: % (non-constipation IBS; [3]): 52% | Abdominal Pain Responders: n (non-constipation IBS; [3]): 165 | Abdominal Pain and Stool Consistency Responders: % (non-constipation IBS; [3]): 47% | Abdominal Pain and Stool Consistency Responders: n (non-constipation IBS; [3]): 147 | Adequate Relief of IBS Symptoms: % (non-constipation IBS; [3]): 41% | Adequate Relief of IBS Symptoms: n (non-constipation IBS; [3]): 128 | Adequate Relief of IBS-Related Bloating: % (non-constipation IBS; [3]): 41% | Adequate Relief of IBS-Related Bloating: n (non-constipation IBS; [3]): 129 | Stool Consistency Responders: % (non-constipation IBS; [3]): 74% | Stool Consistency Responders: n (non-constipation IBS; [3]): 233 | Monthly responders for abdominal pain (≥30% decrease) and stool consistency (score <4) (non-constipation IBS; TARGET 2, ≥2 weeks in month following 2 weeks of treatment): 47% | % with decrease in stool frequency (SF) (non-constipation IBS; Week 1, 550 mg TID): 14.4% | % with decrease in stool frequency (SF) (non-constipation IBS; Week 2, 550 mg TID): 20.6% | % with decrease in stool frequency (SF) (non-constipation IBS; Week 3, 550 mg TID): 22.2% | % with decrease in stool frequency (SF) (non-constipation IBS; Week 4, 550 mg TID): 21.6% | % with decrease in stool frequency (SF) (non-constipation IBS; Week 5, 550 mg TID): 25.7% | % with decrease in stool frequency (SF) (non-constipation IBS; Week 6, 550 mg TID): 22.9% | % with decrease in stool frequency (SF) (non-constipation IBS; Week 7, 550 mg TID): 23.8% | % with decrease in stool frequency (SF) (non-constipation IBS; Week 8, 550 mg TID): 24.4% | % with decrease in stool frequency (SF) (non-constipation IBS; Week 9, 550 mg TID): 25.4% | % with decrease in stool frequency (SF) (non-constipation IBS; Week 10, 550 mg TID): 26.7% | % with decrease in stool frequency (SF) (non-constipation IBS; Week 11, 550 mg TID): 25.4% | % with decrease in stool frequency (SF) (non-constipation IBS; Week 12, 550 mg TID): 27.0% | Inhibition of cytochrome P450 2C19 (cytochrome P450 2C19): does not inhibit | Most common adverse reactions in IBS-D (≥2%) (IBS-D; 550 mg TID): nausea and abdominal pain | Adverse reaction Abdominal Pain: % of Patients (IBS-D; [4]): 2% | Adverse reaction Abdominal Pain: Number of Patients (IBS-D; [4]): 18 | Adverse reaction Nausea: % of Patients (IBS-D; [4]): 2% | Adverse reaction Nausea: Number of Patients (IBS-D; [4]): 22
